In one experiment the target is T1, TBK1 (Homo sapiens, UniProt Q9UHD2).
T1 construct: purchased Life Technologies (Invitrogen)
T1 sequence (Q9UHD2 1-729): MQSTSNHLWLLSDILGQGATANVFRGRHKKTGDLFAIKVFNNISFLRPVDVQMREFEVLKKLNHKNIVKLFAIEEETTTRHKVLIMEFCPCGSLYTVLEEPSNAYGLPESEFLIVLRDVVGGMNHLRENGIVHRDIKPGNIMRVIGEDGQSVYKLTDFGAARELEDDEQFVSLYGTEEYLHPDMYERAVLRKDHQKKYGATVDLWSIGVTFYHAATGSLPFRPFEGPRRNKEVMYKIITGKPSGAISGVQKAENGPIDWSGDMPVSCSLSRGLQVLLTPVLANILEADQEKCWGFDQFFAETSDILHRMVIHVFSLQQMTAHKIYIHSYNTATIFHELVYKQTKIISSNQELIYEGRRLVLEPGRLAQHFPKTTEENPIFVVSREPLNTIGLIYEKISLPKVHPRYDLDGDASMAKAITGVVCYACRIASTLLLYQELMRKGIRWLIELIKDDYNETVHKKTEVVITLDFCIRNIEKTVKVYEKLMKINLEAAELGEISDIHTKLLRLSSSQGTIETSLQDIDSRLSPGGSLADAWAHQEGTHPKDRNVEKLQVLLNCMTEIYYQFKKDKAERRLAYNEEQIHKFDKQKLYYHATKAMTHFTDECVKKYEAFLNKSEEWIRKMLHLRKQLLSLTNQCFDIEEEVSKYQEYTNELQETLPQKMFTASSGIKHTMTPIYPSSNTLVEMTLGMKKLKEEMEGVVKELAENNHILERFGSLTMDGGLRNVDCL
The experiment can be described thus: MCE (microfluidic capillary electrophoresis) kinase assay, phosphorylation of 5-FAM-TBK1-Tide by TBK1. The experiment is classed as biochemical. The following applies: for inhibition at 10 µM: read-out: percent inhibition of TBK1. How it is done: (§1) MCE operates on the principle that small fluorescently-labeled peptide substrates from ∼100 nanoliter sized aliquots of reaction samples are separable in a capillary channel etched in a quartz microfluidic chip ratio when a current is applied, [30]. […] TBK1-Tide was synthesized with an N-terminal 5– Carboxyfluorescein (5-FAM) dye for use as a substrate. […] The enzyme concentrations were then titrated and fixed to 120 nM for TBK1 and 81 nM for IKKε.
(§2) Compounds were screened at a final concentration of 10 µM in 0.1% DMSO. Two libraries of compounds were tested. […] This library was tested in duplicate to establish the reproducibility of the screen (Figure S2). A second kinase-focused library consisting of 4,727 unique and “rule of five” compliant compounds was also tested (Figures 5A and B). […]

Another experiment addresses T2, IKKε (Homo sapiens, UniProt Q14164).
T2 construct: purchased Life Technologies (Invitrogen)
T2 sequence (Q14164 1-716): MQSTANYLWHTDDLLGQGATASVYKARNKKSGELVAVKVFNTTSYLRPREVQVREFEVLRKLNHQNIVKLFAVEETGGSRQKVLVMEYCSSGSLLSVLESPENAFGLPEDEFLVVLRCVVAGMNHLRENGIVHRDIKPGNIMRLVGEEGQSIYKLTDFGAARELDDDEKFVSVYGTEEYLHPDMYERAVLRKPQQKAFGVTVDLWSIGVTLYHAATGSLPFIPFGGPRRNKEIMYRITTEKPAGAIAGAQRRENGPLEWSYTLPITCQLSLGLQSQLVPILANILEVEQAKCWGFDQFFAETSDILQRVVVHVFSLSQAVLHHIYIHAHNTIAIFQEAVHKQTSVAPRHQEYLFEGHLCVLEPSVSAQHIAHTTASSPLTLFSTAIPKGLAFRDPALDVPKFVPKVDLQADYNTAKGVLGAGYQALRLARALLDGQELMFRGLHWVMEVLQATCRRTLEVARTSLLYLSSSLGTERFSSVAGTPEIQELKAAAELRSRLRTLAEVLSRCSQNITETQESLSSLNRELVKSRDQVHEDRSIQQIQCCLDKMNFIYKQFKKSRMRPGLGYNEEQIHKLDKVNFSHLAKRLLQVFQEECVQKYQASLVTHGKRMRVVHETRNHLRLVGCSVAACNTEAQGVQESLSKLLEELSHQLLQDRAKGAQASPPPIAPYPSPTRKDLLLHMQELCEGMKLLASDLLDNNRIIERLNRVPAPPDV
The experiment can be described thus: MCE kinase assay, phosphorylation of 5-FAM-TBK1-Tide by IKKε. The experiment is classed as biochemical. The note with it: for inhibition at 10 µM: read-out: percent inhibition of IKKε. Here is the method: as §1, §2

The target in another experiment is T3, IKKα (Homo sapiens, UniProt O15111).
T3 construct: purchased Life Technologies (Invitrogen)
T3 sequence (O15111 1-745): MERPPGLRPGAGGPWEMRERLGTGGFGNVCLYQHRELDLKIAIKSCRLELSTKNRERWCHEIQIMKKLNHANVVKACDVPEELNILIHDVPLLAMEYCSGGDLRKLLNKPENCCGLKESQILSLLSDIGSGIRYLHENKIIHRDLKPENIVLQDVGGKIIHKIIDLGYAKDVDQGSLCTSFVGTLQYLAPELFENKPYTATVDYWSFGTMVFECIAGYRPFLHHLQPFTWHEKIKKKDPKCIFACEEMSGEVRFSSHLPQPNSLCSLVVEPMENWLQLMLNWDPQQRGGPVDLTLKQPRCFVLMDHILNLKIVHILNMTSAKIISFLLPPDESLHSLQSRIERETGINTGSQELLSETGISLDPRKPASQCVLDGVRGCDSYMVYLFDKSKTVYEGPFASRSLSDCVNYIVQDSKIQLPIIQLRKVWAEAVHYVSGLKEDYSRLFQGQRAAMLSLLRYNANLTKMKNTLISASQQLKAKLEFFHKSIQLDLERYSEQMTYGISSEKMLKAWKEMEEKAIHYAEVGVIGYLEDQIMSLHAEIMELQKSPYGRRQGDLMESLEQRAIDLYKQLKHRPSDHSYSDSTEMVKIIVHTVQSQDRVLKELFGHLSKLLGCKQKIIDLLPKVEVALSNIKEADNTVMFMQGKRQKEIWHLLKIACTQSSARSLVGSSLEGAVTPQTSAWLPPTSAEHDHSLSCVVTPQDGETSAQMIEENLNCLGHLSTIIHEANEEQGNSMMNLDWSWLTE
The experiment can be described thus: MCE kinase assay, phosphorylation of FL-1 peptide by IKKα (secondary screen). The experiment is classed as biochemical. The note with it: for inhibition at 10 µM: read-out: percent inhibition of IKKα. Here is the method: As IKKβ and IKKα are closely related to TBK1 and IKKε, it was important to determine the specificity of any candidate inhibitors. A secondary screen was therefore performed to evaluate the ability of the top-scoring TBK1 and IKKε inhibitors to inhibit the canonical IKKs. […] Enzyme concentrations were titrated and fixed to 11.5 µM for IKKα and 1.1 µM for IKKβ and the screen was performed as described above for TBK1 and IKKε. […]
Kinase buffer contained 50 mM Tris (pH 7.5), 12 mM MgCl2, 1 mM β-glycerophosphate, 100 µM ATP, and 10 µCi γ-^32P-ATP/reaction. Reactions were incubated at 30°C for 1h. Recombinant GST-TBK1 and GST-TBK1 K38A used in the positional scanning peptide library assay were generated as described above and the assay was performed as described previously, [28]. […]

Another experiment relates to ERRα. Further details: method as in LOPAC library description. The following applies: transient transfection assays using GAL4-ERR LBD or full-length ERR with the mSHP promoter; ref LOPAC library description; cited from earlier work.
The target in the next experiment is IKKβ (Homo sapiens, UniProt O14920). The note with it: read-out: ATP Km of IKKβ for TBK1-Tide; room temperature. Here is the method: As IKKβ and IKKα are closely related to TBK1 and IKKε, it was important to determine the specificity of any candidate inhibitors. A secondary screen was therefore performed to evaluate the ability of the top-scoring TBK1 and IKKε inhibitors to inhibit the canonical IKKs. […] Enzyme concentrations were titrated and fixed to 11.5 µM for IKKα and 1.1 µM for IKKβ and the screen was performed as described above for TBK1 and IKKε.
5-FAM-labeled TBK1-Tide for library screening was generated in the High-Throughput Peptide Synthesis and Arrays Core Facility at University of North Carolina at Chapel Hill.
Kinase buffer contained 50 mM Tris (pH 7.5), 12 mM MgCl2, 1 mM β-glycerophosphate, 100 µM ATP, and 10 µCi γ-^32P-ATP/reaction. Reactions were incubated at 30°C for 1h. Recombinant GST-TBK1 and GST-TBK1 K38A used in the positional scanning peptide library assay were generated as described above and the assay was performed as described previously, [28]. […] IKKε reactions were incubated for 2 hours at room temperature and TBK1, IKKα, and IKKβ reactions were incubated for 6 hours at room temperature.

Setting [1] is: compound at 10 µM, after 2 hours (at completion of the assay), LOPAC set.

“And” between values parts separate entries of the source, which are not always exact repeats. Equal entries are not always repeated. Structures can show the parent of a compound that is named as a salt. Where two headings read alike, the source gives them in different places.

Sequence of IKKβ (O14920 whole entry): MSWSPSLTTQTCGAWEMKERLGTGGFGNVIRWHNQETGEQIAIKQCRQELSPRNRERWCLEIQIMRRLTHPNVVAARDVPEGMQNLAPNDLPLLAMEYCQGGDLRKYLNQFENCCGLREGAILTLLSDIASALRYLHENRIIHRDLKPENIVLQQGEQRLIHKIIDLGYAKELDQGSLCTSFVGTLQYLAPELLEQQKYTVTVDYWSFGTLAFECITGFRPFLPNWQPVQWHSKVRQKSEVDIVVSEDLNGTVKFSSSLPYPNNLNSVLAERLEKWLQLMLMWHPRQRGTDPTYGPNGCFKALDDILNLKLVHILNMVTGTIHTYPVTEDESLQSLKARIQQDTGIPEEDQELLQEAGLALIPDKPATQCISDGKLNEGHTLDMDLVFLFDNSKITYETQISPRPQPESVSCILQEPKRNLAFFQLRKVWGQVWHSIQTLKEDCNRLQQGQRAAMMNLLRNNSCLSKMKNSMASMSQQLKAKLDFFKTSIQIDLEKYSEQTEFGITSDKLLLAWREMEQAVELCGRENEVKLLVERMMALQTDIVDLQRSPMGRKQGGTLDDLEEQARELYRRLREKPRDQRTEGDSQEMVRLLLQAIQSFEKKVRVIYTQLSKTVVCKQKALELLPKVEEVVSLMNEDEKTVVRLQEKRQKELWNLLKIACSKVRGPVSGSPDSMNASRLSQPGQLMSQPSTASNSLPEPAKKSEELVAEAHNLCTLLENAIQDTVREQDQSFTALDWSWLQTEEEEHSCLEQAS

As for `CN(C)CCC(c1ccc(Cl)cc1)c1ccccn1.O=C(O)/C=C\C(=O)O` (racemic) [UNC10100321, (±)-Chlorpheniramine maleate salt], at TBK1 (setting [1]), the “percent inhibition of TBK1” value worked out at 84.5%. Moreover, the “percent inhibition of IKKε” value on IKKε (setting [1]) worked out at 48%. Besides, the “percent inhibition of IKKα” value at IKKα (setting [1]) is -3%.

As for `CC(=O)OCC1=C(C(=O)O)N2C(=O)[C@@H](NC(=O)CSc3ccncc3)[C@H]2SC1` [UNC10100339, Cephapirin sodium salt], the results for the inhibition at 10 µM at TBK1 (setting [1]), at IKKε (setting [1]) and on IKKα (setting [1]) were 34%, 60% and -0.5%, respectively.

As to `O=c1cc(-c2ccccc2F)[nH]c2cc3c(cc12)OCO3` [UNC10100799, CHM-1 hydrate], the “percent inhibition of TBK1” value on TBK1 (setting [1]) was determined as 67.5%. In addition, the “percent inhibition of IKKε” value at IKKε (setting [1]) was 12.5%. Besides, the “percent inhibition of IKKα” value on IKKα (setting [1]) is reported as 3%.

For `NC(Cc1cc(O)c(O)cc1O)C(=O)O` (racemic) [UNC10100691, 6-Hydroxy-DL-DOPA], at TBK1 (setting [1]), the “percent inhibition of TBK1” value is listed as 77.5%. Further, at IKKε (setting [1]), the “percent inhibition of IKKε” value was 61%. In addition, the “percent inhibition of IKKα” value on IKKα (setting [1]) stood at 29%.

As to `CN(C)CCC(c1ccccc1)c1ccccn1.O=C(O)/C=C\C(=O)O` (centres unmarked) [UNC10101037, Pheniramine maleate salt], at TBK1 (setting [1]), the “percent inhibition of TBK1” value was determined as 80.5%. Further, on IKKε (setting [1]), the “percent inhibition of IKKε” value came to 20%. For the same compound, on IKKα (setting [1]), the “percent inhibition of IKKα” value is on record as -0.5%.

For `Brc1ccc([C@H]2CN3CCSC3=N2)cc1.O=C(O)C(=O)O` [UNC10100081, (−)-p-Bromolevamisole oxalate], the “percent inhibition of TBK1” value on TBK1 (setting [1]) was 70%. Besides, the “percent inhibition of IKKε” value at IKKε (setting [1]) was determined as 26.5%. In addition, at IKKα (setting [1]), the “percent inhibition of IKKα” value is reported as -2%.

`Nc1c(S(=O)(=O)O)cc(Nc2ccc(Nc3nc(Cl)nc(Nc4cccc(S(=O)(=O)O)c4)n3)c(S(=O)(=O)O)c2)c2c1C(=O)c1ccccc1C2=O` [UNC10101110, Reactive Blue 2]: the inhibition at 10 µM at TBK1 is 74%; at IKKε it was 67%; on IKKα, 55.5%.

In the case of `COc1cc(/C=C(\C#N)C(=O)Nc2nnc(C(F)(F)F)s2)ccc1OCc1ccc(C(F)(F)F)cc1C(F)(F)F` [UNC10101318, XCT790], the “percent inhibition of TBK1” value at TBK1 (setting [1]) amounted to 71.5%. Further, the “percent inhibition of IKKε” value on IKKε (setting [1]) was 10.5%. Also, the “percent inhibition of IKKα” value at IKKα (setting [1]) is 28%. Also, the IC50 with ERRα is […].

`Oc1c2ccccc2c2c3c(cccc13)N=N2` [UNC10100533, SP600125]: the inhibition at 10 µM on TBK1 (setting [1]) was determined as 76.5%; on IKKε (setting [1]), 53.5%; at IKKα (setting [1]) it was 10%.

`CC(=O)NCCc1c[nH]c2ccccc12` [UNC10100161, N-Acetyltryptamine]: the inhibition at 10 µM was 74.5% at TBK1 (setting [1]), 24% on IKKε (setting [1]) and -1.5% at IKKα (setting [1]).

Take `Nc1ncnc2c1ncn2[C@@H]1O[C@H](COP(=O)(O)OP(=O)(O)OP(=O)(O)O)[C@@H](O)[C@H]1O` [ATP]: the Km is 7.5 µM and 7.54 µM on TBK1 (TBK1-Tide fixed at 1 µM, room temperature, read-out: Km for ATP, TBK1); 4.7 µM and 4.67 µM at IKKε (TBK1-Tide fixed at 1 µM, room temperature, read-out: Km for ATP, IKKε); 134 µM at IKKα (room temperature, read-out: ATP Km of IKKα for FL-1); 2 µM on IKKβ.

For the compound `COc1ccc2c(c1)/C(=C/c1cnc[nH]1)C(=O)N2` [UNC10100994, SU9516], the inhibition at 10 µM at TBK1 (setting [1]) worked out at 85.5%; on IKKε (setting [1]), 66%; at IKKα (setting [1]) it was 21.5%.

On to `O=C1Nc2ccccc2/C1=C1/Nc2ccccc2/C1=N\O` [UNC10100206, Indirubin-3′-oxime], for which the “percent inhibition of TBK1” value on TBK1 (setting [1]) was 58%. Moreover, on IKKε (setting [1]), the “percent inhibition of IKKε” value was found to be 68%. Further, the “percent inhibition of IKKα” value at IKKα (setting [1]) came out at 2.5%.

The record behind these values is publication PMC3408500, “Development of a High-Throughput Assay for Identifying Inhibitors of TBK1 and IKKε” (PLoS ONE, 2012).
